In brackets after ≈: the same amount, converted by molar mass.
Legend:
KOR = biological target: T1, KOR (Homo sapiens, UniProt P41145); assay: Opioid receptor binding assay, KOR ([3H]Diprenorphine)
T1 construct: expressed in transfected cells
Description: (§1) Receptor binding assays were performed to assess the ability of compounds to inhibit binding to radiolabeled ligand.
(§2) The stable cell lines were established and prepared cell membrane obtained using these cell lines.
(§3) 1) Transfer 1 μl of specified concentration compound to assay plate according to the plate map for nonspecific binding. Transfer 1 μl of DMSO to assay plate according to plate map for total binding. 2) Follow the plate map. Dispense 99 μl of membrane stocks into the plate. 3) Add 100 μl of radio ligand. 4) Seal the plates. Incubate at RT for 1 hour. 5) Soak the Unifilter-96 GF/C filter plates with 50 μl of 0.3% PEI per well for at least 0.5 hour at room temperature. 6) When binding assays are completed, filter the reaction mixture through GF/C plates using Perkin Elmer Filtermate Harvester, and then wash each plate for 4 times with cold wash buffer. 7) Dry the filter plates for 1 hour at 50 degrees. 8) After drying, seal the bottom of the filter plate wells using Perkin Elmer Unifilter-96 backing seal tape. Add 50 μl of Perkin Elmer Microscint 20 cocktail. Seal top of filter plates with Perkin Elmer TopSeal-A sealing film. 9) Count ^3H trapped on filter using Perkin Elmer MicroBeta2 Reader second day. 10) Analyze the data with GraphPad Prism 5. Calculate the “Inhibition [% Control]” using the equation: % Inh=(1−Background subtracted Assay value/Background subtracted HC value)*100.

[1] = Liver S9 fraction stability, human; format: in vitro ADME; conditions: human liver S9 1.0 mg/ml, 2 μM, 37° C.
Description: (§4) Liver S9 fraction stability determination of the test compounds in dog, cynomolgus monkey and human is performed using HPLC-MS. Test compound (2 μM, 0.1% DMSO, 1% Methanol final concentration) was assessed for stability in a 50 μl phosphate buffer containing 1.0 mg/ml S9 protein from each of the three species and 5 mM D-saccharic acid-1, 4-lactone. Samples were incubated at 37° C. for 60 minutes and the % compound remaining was assessed.

[2] = Dog pharmacokinetic studies, deep intramuscular administration; format: in vivo, Beagle dogs; conditions: Beagle, dog, plasma, im; for AUC(0-inf): read-out: AUC0-inf (ng · h/mL) prodrug; for half-life: read-out: Half-life t1/2 (hour) prodrug (converted)
Description: The purpose of this study is to determine the pharmacokinetics of test compounds in plasma, following deep intramuscular administration to Beagle dogs (n=3, unless otherwise specified).
(§5) The dose formulation (concentration—400 mg base equivalents/ml in sesame oil+1% benzyl alcohol, unless otherwise specified) was administered via deep intramuscularly (unless otherwise specified). The injection vehicle was also dosed via deep intramuscular route (unless otherwise specified) on contralateral site of each animal at study initiation. The animals were sedated with Propofol at 6 mg/kg via IV administration. Following sedation hair was carefully removed from around the injection site and the area gently cleaned. Care will be taken to avoid irritating skin during shaving and cleaning the injection site. Then dogs will be dosed with deep IM administration. At least 2.5 cm depth from the surface into the central aspect of the quadriceps or biceps femoris muscle, by angling the needle toward the femur. If the needle hits the femur, simply draws back slightly and then inject. The dose volume will be determined by the animals' body weight collected on the morning of dosing day. For repeated administration, the injection sites may be rotated to minimize tissue injury.
Blood samples were collected from a peripheral vessel from restrained, non-sedated animals per sampling time point.
Approximately 0.8 mL blood will be collected at each time point.
(§6) Each collected blood sample was centrifuged for 4 minutes at 4° C. and 10000 rpm for plasma collection. Plasma was collected and transferred into a pre-labeled PP tube in dry ice at each time point and precipitated immediately using ACN at a ratio of 1:4 (plasma:ACN).
(§7) LC-MS/MS methods for the quantitative determination of test compound in biological matrix were developed. […] The sample analysis was performed concurrently with a set of calibration standards and two sets of QC samples using the LC-MS/MS method.
(§8) Plasma concentration versus time data was analyzed by non-compartmental approaches using the Phoenix WinNonlin 6.3 software program. Cmax, Tmax, T1/2, AUC(0-t), AUC(0-inf), MRT(0-t), MRT(0-inf) and graphs of plasma concentration versus time profile were prepared.

[3] = Liver S9 fraction stability, monkey; format: in vitro ADME, cynomolgus monkey; conditions: monkey liver S9 1.0 mg/ml, 2 μM, 37° C.
Description: as §4

[4] = Rat pharmacokinetic studies, intramuscular administration; format: in vivo, male Sprague Dawley Rats; conditions: male, Sprague Dawley, rat, plasma, im; for AUC(0-inf): read-out: AUC0-inf (ng · h/mL) prodrug; for half-life: read-out: Half-life t1/2 (hour) prodrug (converted)
Description: The purpose of this study is to determine the pharmacokinetics of test compounds in plasma, following intramuscular administration to male Sprague Dawley Rats (n=3, unless otherwise specified).
The dose formulation of 400 mg base equivalents/ml in sesame oil+1% benzyl alcohol (unless otherwise specified) was administered by intramuscular injection. The dose volume was determined by the animals' body weight determined on the morning of dosing day.
as §6, with “(plasma:ACN). Centrifuged again (10 minutes, 12000 rpm) and obtain the supernatant.” for “(plasma:ACN).”
as §7, §8

MOR = biological target: T2, MOR (Homo sapiens, UniProt P35372); assay: Opioid receptor binding assay, MOR ([3H]DAMGO)
T2 construct: expressed in transfected cells
T2 sequence (P35372 whole entry): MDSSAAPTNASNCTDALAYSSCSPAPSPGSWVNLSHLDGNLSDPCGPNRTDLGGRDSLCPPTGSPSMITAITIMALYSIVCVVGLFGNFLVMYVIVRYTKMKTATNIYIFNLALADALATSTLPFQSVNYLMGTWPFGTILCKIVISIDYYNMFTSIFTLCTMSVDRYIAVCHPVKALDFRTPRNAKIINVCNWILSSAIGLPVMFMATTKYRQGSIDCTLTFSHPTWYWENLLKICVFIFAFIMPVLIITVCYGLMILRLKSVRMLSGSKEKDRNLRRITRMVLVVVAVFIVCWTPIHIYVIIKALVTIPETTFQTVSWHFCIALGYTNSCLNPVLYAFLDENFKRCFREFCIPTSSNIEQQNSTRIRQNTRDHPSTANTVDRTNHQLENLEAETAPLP
Description: as §1, §2, §3

[5] = Liver S9 fraction stability, dog; format: in vitro ADME; conditions: dog liver S9 1.0 mg/ml, 2 μM, 37° C.
Description: as §4

[6] = Solubility determination in oil (Table 10); conditions: thermodynamic from solid; for solubility at 24 h: 25 °C, Heating Temp. 60 °C, Obs. Temp. 25 °C; for solubility / solubility thermodynamic: 40 °C, Heating Temp. 40 °C, Obs. Temp. 40 °C; for solubility thermodynamic: water, Equilibrium solubility: Water
Description: A known amount of test substance (˜40 mg) was weighed into the vial, 100 μL of oil was added and heated to 60° C. and then system was slurried to reach equilibrium. […] Extra oil was added into the vial once compound precipitated out and then the system was re-equilibrated at 1000 rpm at room temperature (25° C.). Final concentration was determined by HPLC method as described below in Table 6a and 6b.

DOR = biological target: T3, DOR (Homo sapiens, UniProt P41143); assay: Opioid receptor binding assay, DOR ([3H]-DADLE)
T3 construct: expressed in transfected cells
T3 sequence (P41143 whole entry): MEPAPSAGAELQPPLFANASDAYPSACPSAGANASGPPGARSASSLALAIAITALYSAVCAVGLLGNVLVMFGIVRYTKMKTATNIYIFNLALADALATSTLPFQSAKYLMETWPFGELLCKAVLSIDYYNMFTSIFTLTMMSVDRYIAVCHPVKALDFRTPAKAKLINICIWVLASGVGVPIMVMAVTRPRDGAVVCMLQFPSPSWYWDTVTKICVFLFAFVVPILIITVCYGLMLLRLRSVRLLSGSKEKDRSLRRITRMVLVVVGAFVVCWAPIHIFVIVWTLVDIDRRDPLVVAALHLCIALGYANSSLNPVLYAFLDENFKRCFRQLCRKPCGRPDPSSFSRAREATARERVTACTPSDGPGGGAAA
Description: as §1, §2, §3

[7] = Dog body weights and clinical observation (Tables 66-86); format: in vivo, Beagle dogs; conditions: 48 mg/kg Shallow IM, dog D1002, 1128 hr
Description: Weight monitoring was done every week.
as §5

[8] = 30 mg/kg, IM 30 mg/kg, Sesame oil + 1% Benzyl Alcohol
[9] = 48 mg/kg, IM 48 mg/kg (deep), Sesame oil + 1% Benzyl Alcohol
[10] = 48 mg/kg, IM 48 mg/kg (shallow), Sesame oil + 1% Benzyl Alcohol
[11] = 96 mg/kg, IM 96 mg/kg, Sesame oil + 1% Benzyl Alcohol
[12] = 80 mg/kg, Sesame oil + 1% Benzyl Alcohol
[13] = 123 mg/kg, Sesame oil + 1% Benzyl Alcohol
[14] = 165 mg/kg, Sesame oil + 1% Benzyl Alcohol
[15] = oil or lipid, Approximate Solubility in Excipient: Cottonseed oil
[16] = oil or lipid, Approximate Solubility in Excipient: Sesame oil
[17] = 48 mg/kg, IM 48 mg/kg (deep), Cottonseed + 1% Benzyl Alcohol
[18] = 48 mg/kg, IM 48 mg/kg (shallow), Cottonseed + 1% Benzyl Alcohol
[19] = 80 mg/kg, Cottonseed + 1% Benzyl Alcohol
[20] = 123 mg/kg, Cottonseed oil + 1% Benzyl Alcohol
[21] = 165 mg/kg, Cottonseed oil + 1% Benzyl Alcohol

T1 sequence (P41145 whole entry): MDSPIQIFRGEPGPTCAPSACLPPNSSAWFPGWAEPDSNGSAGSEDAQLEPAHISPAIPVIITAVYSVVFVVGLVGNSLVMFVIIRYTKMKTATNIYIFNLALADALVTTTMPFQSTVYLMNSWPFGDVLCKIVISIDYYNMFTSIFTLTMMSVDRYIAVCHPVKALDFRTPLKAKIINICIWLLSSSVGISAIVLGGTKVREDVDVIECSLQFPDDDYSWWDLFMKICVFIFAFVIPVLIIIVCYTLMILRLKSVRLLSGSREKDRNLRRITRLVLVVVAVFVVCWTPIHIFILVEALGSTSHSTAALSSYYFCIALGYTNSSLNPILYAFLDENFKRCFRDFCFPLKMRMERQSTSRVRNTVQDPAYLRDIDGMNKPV

For `C=C1CC[C@@]2(O)C3Cc4ccc(OC(=O)OCCCCCCCCCCCC)c5c4[C@@]2(CCN3CC2CC2)[C@H]1O5` [Compound 6, (4aS,7aS,12bS)-3-(cyclopropylmethyl)-4a-hydroxy-7-methylene-2,3,4,4a,5,6,7,7a-octahydro-1H-4,12-methanobenzofuro[3,2-e]isoquinolin-9-yl dodecyl carbonate], the IC50 (KOR) was 51.1 nM, the “% remaining at 60 minutes, Human” value [1] was 5.3% and the AUC(0-inf) [2, 8] was 398 ng·h/mL. The half-life [2, 8] was 95 h, the AUC(0-inf) [2, 9] was 2190 ng·h/mL and the half-life [2, 9] was 54 h. For the same molecule, the AUC(0-inf) [2, 10] was 1020 ng·h/mL, the half-life [2, 10] was 135 h and the AUC(0-inf) [2, 11] was 1290 ng·h/mL. The half-life [2, 11] was 88 h, the “% remaining at 60 minutes, Monkey” value [3] was 0% and the AUC(0-inf) [4, 12] was 78.9 ng·h/mL. For the same molecule, the half-life [4, 12] was 340 h, the AUC(0-inf) [4, 13] was 620 ng·h/mL and the half-life [4, 13] was 213 h. It also gave an AUC(0-inf) [4, 14] of 637 ng·h/mL, a half-life [4, 14] of 204 h and an IC50 (MOR) of 14.9 nM. For the same molecule, the “% remaining at 60 minutes, Dog” value [5] was 17.1%, the solubility at 24 h [6, 15] was greater than 397 mg/mL and the solubility at 24 h [6, 16] was greater than 386 mg/mL. The solubility [6, 15] was greater than 421 mg/mL, the solubility [6, 16] was greater than 403 mg/mL and the solubility ([6]; organic solvent or mixture, Approximate Solubility in Excipient: Ethanol) was 120 to 170 mg/mL (≈ 217 to 308 mM). It also gave a solubility thermodynamic [6] of 0.002 mg/mL (≈ 0.00362 mM) and an IC50 (DOR) of 500 nM.

For `C=C1CC[C@@]2(O)C3Cc4ccc(OCOC(=O)OCCCCCCCCCCCC)c5c4[C@@]2(CCN3CC2CC2)[C@H]1O5` [Compound 24, (((4aS,7aS,12bS)-3-(cyclopropylmethyl)-4a-hydroxy-7-methylene-2,3,4,4a,5,6,7,7a-octahydro-1H-4,12-methanobenzofuro[3,2-e]isoquinolin-9-yl)oxy)methyl dodecyl carbonate], the IC50 (KOR) was 37.5 nM, the “% remaining at 60 minutes, Human” value [1] was 3.5% and the AUC(0-inf) [2, 17] was 613 ng·h/mL. It also gave a half-life [2, 17] of 59.6 h, an AUC(0-inf) [2, 18] of 526 ng·h/mL and a half-life [2, 18] of 102 h. The BT [7] was “BT: 38.8 °C”, the “% remaining at 60 minutes, Monkey” value [3] was 3% and the AUC(0-inf) [4, 19] was 147 ng·h/mL. The half-life [4, 19] was 398 h, the AUC(0-inf) [4, 20] was 547 ng·h/mL and the half-life [4, 20] was 717 h. The AUC(0-inf) [4, 21] was 453 ng·h/mL, the half-life [4, 21] was 851 h and the IC50 (MOR) was 22.4 nM. For the same molecule, the “% remaining at 60 minutes, Dog” value [5] was 3.6%, the solubility at 24 h [6, 15] was greater than 403 mg/mL and the solubility at 24 h [6, 16] was 338 to 368 mg/mL (≈ 581 to 633 mM). It also gave a solubility thermodynamic [6] of less than 0.001 mg/mL and an IC50 (DOR) of 2120 nM.

— patent US20190308988A1, “OPIOID RECEPTOR ANTAGONIST PRODRUGS” (Nirsum Laboratories, Inc., priority 2017, published 2019)
